How the values were obtained:
[1] = system: Human ovarian cancer OVCAR3 cells; experiment: Assay of cell proliferation (CellTiter-Glo); format: cell-based; settings: Homo sapiens, OVCAR-3, 144 h, 6 days, read-out: OVCAR3 IC50 of cell proliferation inhibitory activity
Summary of the method: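 OVCAR3 cells, 2000/well in RPMI 1640 with 20% FBS, treated with nine 3-fold dilutions from 10 µM to 0.1 nM (0.5% DMSO) for 6 days at 37 °C. Viability by CellTiter-Glo luminescence; IC50 by four-parameter fit.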

CDK2/cyclin E = CDK2/cyclin E (Homo sapiens, UniProt P24941); experiment: Assay of kinase activity (ADP-Glo); format: biochemical; settings: kinase inhibitory activity, read-out: CDK2/E1 IC50
Summary of the method: (§1)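 Kinase preincubated 10 min with compound in 50 mM Hepes, 10 mM MgCl2, 0.01% Brij35, 2 mM DTT, then substrate/ATP added for 60 min at 25 °C. ADP formed measured by ADP-Glo luminescence; IC50 by nonlinear concentration-response fitting.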

CDK4/cyclin D1 = CDK4/cyclin D1 (Homo sapiens, UniProt P11802); experiment: Assay of kinase activity (ADP-Glo); format: biochemical; settings: kinase inhibitory activity
Sequence of CDK4/cyclin D1 (P11802 whole entry, species assumed): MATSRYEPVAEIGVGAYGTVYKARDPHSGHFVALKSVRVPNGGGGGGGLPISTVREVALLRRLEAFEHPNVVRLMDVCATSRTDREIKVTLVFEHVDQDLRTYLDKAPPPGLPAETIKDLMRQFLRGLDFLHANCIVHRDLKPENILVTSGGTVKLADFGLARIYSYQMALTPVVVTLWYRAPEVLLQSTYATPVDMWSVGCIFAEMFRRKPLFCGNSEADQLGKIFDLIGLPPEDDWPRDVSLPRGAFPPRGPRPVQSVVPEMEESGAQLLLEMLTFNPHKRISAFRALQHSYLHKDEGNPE
Sequence of CDK4/cyclin D1 (P24385 whole entry partner, species assumed): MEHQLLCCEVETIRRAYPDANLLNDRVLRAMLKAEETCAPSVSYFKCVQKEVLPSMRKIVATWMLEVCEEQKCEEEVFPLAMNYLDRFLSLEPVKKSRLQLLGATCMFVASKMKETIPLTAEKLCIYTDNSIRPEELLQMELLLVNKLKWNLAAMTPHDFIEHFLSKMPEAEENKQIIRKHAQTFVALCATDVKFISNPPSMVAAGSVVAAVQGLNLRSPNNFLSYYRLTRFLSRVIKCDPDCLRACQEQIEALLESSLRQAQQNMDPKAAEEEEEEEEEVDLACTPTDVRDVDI
Summary of the method: as §1

[2] = system: human colon cancer HCT-116 cells; experiment: Assay of cell proliferation (CellTiter-Glo); format: cell-based; settings: 144 h, 6 days, read-out: HCT-116 IC50 of cell proliferation inhibitory activity
Summary of the method: (§2)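 Cells seeded per line at growth-adapted densities, treated 6 days at 37 °C/5% CO2 with nine 3-fold dilutions (10 µM to 0.1 nM final, 0.5% DMSO). Viability by CellTiter-Glo luminescence; IC50 from four-parameter fit.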

[3] = system: human gastric cancer MKN1 cells; experiment: Assay of cell proliferation (CellTiter-Glo); format: cell-based; settings: Homo sapiens, MKN-1, 144 h; MNK1, 6 days; read-out: MKN1 IC50 of cell proliferation inhibitory activity
Summary of the method: as §2

[4] = system: human breast cancer MCF-7 cells; experiment: Assay of cell proliferation (CellTiter-Glo); format: cell-based; settings: 144 h, MCF7 cells, 6 days, read-out: MCF7 IC50 of cell proliferation inhibitory activity
Summary of the method: as §2

[5] = system: human acute myeloid leukemia MV-4-11 cells; experiment: Assay of cell proliferation (CellTiter-Glo); format: cell-based; settings: MV4-11, 144 h, 6 days, read-out: MV-4-11 IC50 of cell proliferation inhibitory activity
Summary of the method: as §2

[6] = system: human breast cancer HCC1806 cells; experiment: Assay of cell proliferation (CellTiter-Glo); format: cell-based; settings: Homo sapiens, 144 h, 6 days, read-out: HCC1806 IC50 of cell proliferation inhibitory activity
Summary of the method: as §2

CDK9/cyclin T1 = CDK9/cyclin T1 (Homo sapiens, UniProt P50750); experiment: Assay of kinase activity (ADP-Glo); format: biochemical; settings: kinase inhibitory activity
Sequence of CDK9/cyclin T1 (P50750 whole entry, species assumed): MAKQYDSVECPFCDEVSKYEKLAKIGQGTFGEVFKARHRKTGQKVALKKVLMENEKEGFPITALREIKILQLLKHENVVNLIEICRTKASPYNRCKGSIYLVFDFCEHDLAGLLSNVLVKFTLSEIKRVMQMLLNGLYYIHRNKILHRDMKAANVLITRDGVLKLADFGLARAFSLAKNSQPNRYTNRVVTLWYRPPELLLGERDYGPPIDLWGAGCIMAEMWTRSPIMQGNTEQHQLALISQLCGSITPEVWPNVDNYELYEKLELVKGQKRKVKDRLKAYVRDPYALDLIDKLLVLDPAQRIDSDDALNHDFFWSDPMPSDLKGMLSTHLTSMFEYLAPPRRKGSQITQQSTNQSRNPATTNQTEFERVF
Sequence of CDK9/cyclin T1 (O60563 whole entry partner, species assumed): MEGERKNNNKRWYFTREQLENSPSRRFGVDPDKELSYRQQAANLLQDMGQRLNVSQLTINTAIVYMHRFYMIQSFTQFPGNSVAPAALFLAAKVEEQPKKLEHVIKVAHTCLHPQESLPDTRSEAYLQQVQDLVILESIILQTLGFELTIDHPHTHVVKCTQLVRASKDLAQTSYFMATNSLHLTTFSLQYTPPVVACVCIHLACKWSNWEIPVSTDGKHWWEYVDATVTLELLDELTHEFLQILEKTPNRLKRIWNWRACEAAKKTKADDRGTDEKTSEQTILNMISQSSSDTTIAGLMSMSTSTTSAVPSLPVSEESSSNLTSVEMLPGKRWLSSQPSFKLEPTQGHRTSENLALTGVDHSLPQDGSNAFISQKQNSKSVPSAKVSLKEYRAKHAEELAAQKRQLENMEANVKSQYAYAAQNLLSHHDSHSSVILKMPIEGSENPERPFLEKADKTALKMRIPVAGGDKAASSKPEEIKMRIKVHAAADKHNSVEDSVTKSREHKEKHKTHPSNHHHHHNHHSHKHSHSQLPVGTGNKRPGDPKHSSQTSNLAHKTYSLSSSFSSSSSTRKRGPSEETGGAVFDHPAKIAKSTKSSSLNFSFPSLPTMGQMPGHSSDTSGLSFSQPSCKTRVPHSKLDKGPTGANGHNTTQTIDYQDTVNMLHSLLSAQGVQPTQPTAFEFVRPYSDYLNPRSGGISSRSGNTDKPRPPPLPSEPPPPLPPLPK
Summary of the method: (§3)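 ADP production quantified by luminescence after 60 min kinase reaction at 25 °C, started with substrate/ATP following 10 min enzyme-compound preincubation. Buffer: 50 mM Hepes, 10 mM MgCl2, 0.01% Brij35, 2 mM DTT. IC50 obtained by nonlinear curve fitting of inhibition data.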

CDK6/cyclin D3 = CDK6/cyclin D3 (Homo sapiens, UniProt Q00534); experiment: Assay of kinase activity (ADP-Glo); format: biochemical; settings: kinase inhibitory activity
Sequence of CDK6/cyclin D3 (Q00534 whole entry, species assumed): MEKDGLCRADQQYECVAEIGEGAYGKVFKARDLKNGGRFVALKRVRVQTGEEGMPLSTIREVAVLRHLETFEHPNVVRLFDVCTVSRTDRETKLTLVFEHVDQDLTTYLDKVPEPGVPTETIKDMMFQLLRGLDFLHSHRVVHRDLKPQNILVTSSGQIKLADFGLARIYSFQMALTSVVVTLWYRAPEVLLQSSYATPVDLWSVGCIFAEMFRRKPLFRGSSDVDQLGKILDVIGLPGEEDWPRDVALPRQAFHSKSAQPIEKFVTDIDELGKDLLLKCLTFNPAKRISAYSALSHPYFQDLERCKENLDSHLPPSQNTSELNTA
Sequence of CDK6/cyclin D3 (P30281 whole entry partner, species assumed): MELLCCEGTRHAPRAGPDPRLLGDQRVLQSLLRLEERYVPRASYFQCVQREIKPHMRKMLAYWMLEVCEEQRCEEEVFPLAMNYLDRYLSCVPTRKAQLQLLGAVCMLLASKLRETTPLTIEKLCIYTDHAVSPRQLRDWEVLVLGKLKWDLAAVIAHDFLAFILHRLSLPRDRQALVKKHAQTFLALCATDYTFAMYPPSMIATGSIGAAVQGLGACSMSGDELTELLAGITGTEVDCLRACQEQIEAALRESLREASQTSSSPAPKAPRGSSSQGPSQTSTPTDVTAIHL
Summary of the method: as §3

| IC50 [1] | IC50 (CDK2/cyclin E) | IC50 (CDK4/cyclin D1) | IC50 [2] | IC50 [3] | IC50 [4] | IC50 [5] | IC50 [6] | IC50 (CDK9/cyclin T1) | IC50 (CDK6/cyclin D3) | SMILES |
| --- | --- | --- | --- | --- | --- | --- | --- | --- | --- | --- |
| 224 nM | 0.7 nM | 2 nM | 95 nM | 21 nM | 162 nM | 16 nM | 233 nM | 6 nM | 12 nM | CC(C)n1nnc2ccc3cnc(Nc4ccc(C(=O)N5CCOCC5)cc4)nc3c21 [Example I-35, (4-((1-Isopropyl-1H-[1,2,3]triazolo[4,5-H]quinazolin-8-yl)amino)phenyl)(morpholino)methanone] |
| 14 nM | 0.1 nM | 0.8 nM | 11 nM | 16 nM | 8 nM | 5 nM | 20 nM | 3 nM | 3 nM | CN[C@@H]1CCN(C(=O)c2ccc(Nc3ncc4ccc5nnn(C(C)C)c5c4n3)cc2)C1 [Example I-7, (R)-(4-((1-Isopropyl-1H-[1,2,3]triazolo[4,5-H]quinazolin-8-yl)amino)phenyl)(3-(methylamino)pyrrolidin-1-yl)methanone] |

From patent publication EP4711369A1, “1H-[1,2,3]TRIAZOLO[4,5-H]QUINAZOLINE COMPOUNDS AS PROTEIN KINASE INHIBITORS” (Chengdu Cynogen Bio-Pharmaceutical Technology Co., Ltd., priority 2023, dated 2024)
